Patent publication US11173145B2, “Compounds useful as inhibitors of indoleamine 2,3-dioxygenase and/or tryptophan dioxygenase” (Board of Regents, The University of Texas System, priority 2017, dated 2021)

What was measured:
mouse IDO1 = molecular target: T1, mouse IDO1 (Mus musculus, UniProt P28776); assay: Mouse IDO1 cell-based assay (PANC02 cells, mouse IFNgamma-induced, N-formylkynurenine/L-tryptophan by RFMS); settings: 30 ng/mL mouse IFNgamma, 48 hours
T1 construct: The murine PANC02 pancreatic ductal adenocarcinoma cell line was routinely maintained in DMEM media; endogenous in cells; host or cells: PANC02 murine pancreatic ductal adenocarcinoma cells, induced with mouse IFNgamma
T1 sequence (P28776 whole entry): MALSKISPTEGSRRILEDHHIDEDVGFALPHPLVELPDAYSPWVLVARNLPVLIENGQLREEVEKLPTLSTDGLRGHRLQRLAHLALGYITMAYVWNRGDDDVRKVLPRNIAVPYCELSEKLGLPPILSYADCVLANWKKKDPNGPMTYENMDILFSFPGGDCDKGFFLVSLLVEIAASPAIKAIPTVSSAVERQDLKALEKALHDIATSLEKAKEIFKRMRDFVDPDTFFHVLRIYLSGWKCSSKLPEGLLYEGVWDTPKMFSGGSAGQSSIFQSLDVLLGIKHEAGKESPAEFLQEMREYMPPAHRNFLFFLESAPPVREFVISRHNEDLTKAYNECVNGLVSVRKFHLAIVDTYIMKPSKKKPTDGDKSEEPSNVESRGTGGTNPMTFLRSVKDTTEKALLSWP
Procedure: The murine PANC02 pancreatic ductal adenocarcinoma cell line was routinely maintained in DMEM media containing 10% FBS. Cells (3,000/well) were seeded onto a 384 well plate in 50 μl of media and incubated at 37° C., 5% CO2 overnight. Cell media was aspirated, fresh media containing 30 ng/mL mouse IFNgamma (Gibco Life Technologies, cat #PMC4031) was added, and cells were incubated in absence or presence of various concentrations of compounds (final 0.5% DMSO) for 48 hours at 37° C., 5% CO2. Aliquots of the cell conditioned media was removed from the cell plate, and mixed with equal volume of 200 mM ZnSO4 to precipitate media containing protein. Two volumes of acetonitrile were added by mixing, and samples were then centrifuged at 2250G for 20 minutes at 4° C. Aliquots of the supernatant were diluted 1:10 in 0.1% formic acid containing 3 μM of deuterated Tryptophan as an internal standard.
Samples were analyzed via RFMS to quantify N-Formyl Kynurenine (AUC) and L-tryptophan (AUC). A C18 cartridge was used with mobile phases of 0.1% Formic Acid and 80% ACN/0.1% Formic Acid under isocratic conditions. Dose-response curves were analyzed using IC50 regression curve fitting (GeneData Screener). Curves were plotted as percent of control and normalized by high controls without inhibitor (100%), and low controls (0%) containing 1 μM of epacadostat. Cell viability was also assessed using the Cell Titer Glo Kit (Promega) following manufacture recommendation.

IDO1 = molecular target: T2, IDO1 (Homo sapiens, UniProt P14902); assay: IDO1 cell-based assay (HeLa cells, IFNgamma-induced, N-formylkynurenine/L-tryptophan by RFMS); settings: 10 ng/mL IFNgamma, 24 hours
T2 construct: endogenous in cells; host or cells: HeLa cells (ATCC), IFNgamma-induced
T2 sequence (P14902 whole entry): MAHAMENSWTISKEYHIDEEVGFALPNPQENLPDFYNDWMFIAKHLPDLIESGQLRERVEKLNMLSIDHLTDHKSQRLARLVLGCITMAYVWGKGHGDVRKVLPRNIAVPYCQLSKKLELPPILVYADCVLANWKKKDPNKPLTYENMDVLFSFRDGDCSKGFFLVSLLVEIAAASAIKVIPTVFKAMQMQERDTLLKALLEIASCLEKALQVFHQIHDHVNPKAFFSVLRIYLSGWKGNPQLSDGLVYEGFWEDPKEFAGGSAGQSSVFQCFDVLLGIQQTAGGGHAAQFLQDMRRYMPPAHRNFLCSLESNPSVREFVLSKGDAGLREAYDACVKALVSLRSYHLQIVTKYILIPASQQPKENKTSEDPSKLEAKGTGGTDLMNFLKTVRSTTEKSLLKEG
Method in brief: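 HeLa cells stimulated with 10 ng/mL IFNgamma and exposed to compound (0.5% DMSO final) for 24 h at 37 °C. Conditioned media deproteinized, then N-formylkynurenine and L-tryptophan quantified by RapidFire MS with deuterated tryptophan internal standard; IC50 by curve fitting. Viability checked by CellTiter-Glo.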

| SMILES | IC50 (mouse IDO1) [nM] | IC50 (IDO1) [nM] |
| --- | --- | --- |
| CCC(NC(=O)c1ccc(Cl)cc1)[C@H]1[C@@H]2C[C@@H](n3cc(C4CN(C(C)=O)C4)nn3)C[C@@H]21 (stereo partly drawn) [Compound 257, N-(1-((1R,3s,5S,6r)-3-(4-(1-acetylazetidin-3-yl)-1H-1,2,3-triazol-1-yl)bicyclo[3.1.0]hexan-6-yl)propyl)-4-chlorobenzamide] | > 5000 | > 5000 |
| CCC(NC(=O)c1ccc(Cl)cc1)[C@H]1[C@@H]2C[C@@H](N3C(=O)c4ccccc4C3=O)C[C@@H]21 (stereo partly drawn) [Compound 161, 4-chloro-N-(1-((1R,3s,5S,6r)-3-(1,3-dioxoisoindolin-2-yl)bicyclo[3.1.0]hexan-6-yl)propyl)benzamide] | 500 to 2000 | < 200 |
| CCC(NC(=O)c1ccc(Cl)cc1)[C@H]1[C@@H]2C[C@H](n3cc(COC)nn3)C[C@@H]21 (stereo partly drawn) [Compound 214, 4-chloro-N-(1-((1R,3r,5S,6r)-3-(4-(methoxymethyl)-1H-1,2,3-triazol-1-yl)bicyclo[3.1.0]hexan-6-yl)propyl)benzamide] | < 500 | < 200 |
| CCC(NC(=O)c1ccc(Cl)cc1)[C@H]1[C@@H]2C[C@@H](Nc3ccccn3)C[C@@H]21 (stereo partly drawn) [Compound 226, 4-chloro-N-(1-((1R,3s,5S,6r)-3-(pyridin-2-ylamino)bicyclo[3.1.0]hexan-6-yl)propyl)benzamide] | < 500 | < 200 |
| CCC(NC(=O)c1ccc(Cl)cc1)[C@H]1[C@@H]2C[C@@H](Nc3ncc(F)cc3[N+](=O)[O-])C[C@@H]21 (stereo partly drawn) [Compound 236, 4-chloro-N-(1-((1R,3s,5S,6r)-3-((5-fluoro-3-nitropyridin-2-yl)amino)bicyclo[3.1.0]hexan-6-yl)propyl)benzamide] | 500 to 2000 | < 200 |
| CCC(NC(=O)c1ccc(Cl)cc1)[C@H]1[C@@H]2C[C@@H](C(C(=O)OC)c3ccccc3)C[C@@H]21 (mixture of isomers) [Compound 203, methyl (S)-2-((R, 3R, 5S,6S)-6-((S)-1-(4-chlorobenzamido)propyl)bicyclo[3.1.0]hexan-3-yl)-2-phenylacetate and methyl (R)-2-((1R,3R,5S, 6S)-6-((R)-1-(4-chlorobenzamido)propyl)bicyclo[3.1.0]hexan-3-yl)-2-phenylacetate] | < 500 | 200 to 2000 |
| CCC(NC(=O)c1ccc(Cl)cc1)[C@H]1[C@@H]2C[C@@H](C(C(=O)OC)c3ccccc3)C[C@@H]21 (mixture of isomers) [Compound 202, methyl (S)-2-((1R,3S,5S, 6S)-6-((R)-1-(4-chlorobenzamido)propyl)bicyclo[3.1.0]hexan-3-yl)-2-phenylacetate and methyl (R)-2-((R, 3S, 5S, 6S)-6-((S)-1-(4-chlorobenzamido)propyl)bicyclo[3.1.0]hexan-3-yl)-2-phenylacetate] | 500 to 2000 | 200 to 2000 |
| CCC(NC(=O)c1ccc(Cl)cc1)[C@H]1[C@@H]2C[C@@H](n3cc(C4CN(C(=O)OC(C)(C)C)C4)nn3)C[C@@H]21 (stereo partly drawn) [Compound 233, tert-butyl 3-(1-((1R,3s,5S,6r)-6-(1-(4-chlorobenzamido)propyl)bicyclo[3.1.0]hexan-3-yl)-1H-1,2,3-triazol-4-yl)azetidine-1-carboxylate] | > 5000 | 2000 to 5000 |
| CCC(NC(=O)c1ccc(Cl)cc1)[C@H]1[C@@H]2C[C@@H](N3CCOC3=O)C[C@@H]21 (stereo partly drawn) [Compound 185, 4-chloro-N-(1-((1R,3s,5S,6r)-3-(2-oxooxazolidin-3-yl)bicyclo[3.1.0]hexan-6-yl)propyl)benzamide] | 2000 to 5000 | 200 to 2000 |
| CCC(NC(=O)c1ccc(Cl)cc1)[C@@H]1[C@H]2C=C(c3cncc(C(F)(F)F)c3)C[C@H]21 (stereo partly drawn) [Compound 254, 4-chloro-N-(1-((1R,5R,6S)-3-(5-(trifluoromethyl)pyridin-3-yl)bicyclo[3.1.0]hex-2-en-6-yl)propyl)benzamide] | < 500 | < 200 |
| CCC(NC(=O)c1ccc(Cl)cc1)[C@H]1[C@@H]2C[C@@H](Oc3nc4cc(F)ccc4[nH]3)C[C@@H]21 (stereo partly drawn) [Compound 193, 4-chloro-N-(1-((1R,3s,5S,6r)-3-((6-fluoro-1H-benzo[d]imidazol-2-yl)oxy)bicyclo[3.1.0]hexan-6-yl)propyl)benzamide] | 500 to 2000 | 200 to 2000 |
| CCC(NC(=O)c1ccc(Cl)cc1)[C@H]1[C@@H]2C[C@@H](C(C#N)c3ccccc3)C[C@@H]21 (stereo partly drawn) [Compound 166, 4-chloro-N-(1-((1R,3s,5 S,6r)-3-(cyano(phenyl)methyl)bicyclo[3.1.0]hexan-6-yl)propyl) benzamide] | < 500 | < 200 |
| CCC(NC(=O)c1ccc(Cl)cc1)[C@H]1[C@@H]2C[C@@H](NC(=O)c3cc(C(F)(F)F)ccn3)C[C@@H]21 (stereo partly drawn) [Compound 225, N-((1R,3s,5S,6r)-6-(1-(4-chlorobenzamido)propyl)bicyclo[3.1.0]hexan-3-yl)-4-(trifluoromethyl)picolinamide] | 2000 to 5000 | < 200 |
| CCC(NC(=O)c1ccc(Cl)cc1)[C@H]1[C@@H]2C[C@@H](NC(=O)c3ccc(OC)cn3)C[C@@H]21 (stereo partly drawn) [Compound 164, N-((1R,3s,5S,6r)-6-(1-(4-chlorobenzamido)propyl)bicyclo[3.1.0]hexan-3-yl)-5-methoxypicolinamide] | 500 to 2000 | 200 to 2000 |
| CCC(NC(=O)c1ccc(Cl)cc1)[C@H]1[C@@H]2C[C@@H](n3cnc(-c4ccccc4)c3)C[C@@H]21 (stereo partly drawn) [Compound 200, 4-chloro-N-(1-((1R,3s,5S,6r)-3-(4-phenyl-1H-imidazol-1-yl)bicyclo[3.1.0]hexan-6-yl)propyl)benzamide] | 500 to 2000 | < 200 |
| CCC(NC(=O)c1ccc(Cl)cc1)[C@@H]1[C@H]2C=C(c3ncnc4cc(F)ccc34)C[C@H]21 (stereo partly drawn) [Compound 255, 4-chloro-N-(1-((1R,5R,6S)-3-(7-fluoroquinazolin-4-yl)bicyclo[3.1.0]hex-2-en-6-yl)propyl)benzamide] | 2000 to 5000 | 200 to 2000 |
| CCC(NC(=O)c1ccc(Cl)cc1)[C@H]1[C@@H]2C[C@H](NC(=O)c3ncccc3F)C[C@@H]21 (stereo partly drawn) [Compound 220, N-((1R,3r,5S,6r)-6-(1-(4-chlorobenzamido)propyl)bicyclo[3.1.0]hexan-3-yl)-3-fluoropicolinamide] | < 500 | < 200 |
| CCC(NC(=O)c1ccc(Cl)cc1)[C@H]1[C@@H]2C[C@@H](C(C(=O)O)c3ccccc3)C[C@@H]21 (stereo partly drawn) [Compound 228, 2-((1R,3s, 5S, 6r)-6-(1-(4-chlorobenzamido)propyl)bicyclo[3.1.0]hexan-3-yl)-2-phenylacetic acid] | 2000 to 5000 | 2000 to 5000 |
| C[C@@H](NC(=O)c1ccc(C#N)cc1)[C@H]1[C@@H]2C[C@@H](Oc3ncnc4ccc(F)cc34)C[C@@H]21 [Compound 131, 4-cyano-N-((S)-1-((1R,3R,5S,6r)-3-((6-fluoroquinazolin-4-yl)oxy)bicyclo[3.1.0]hexan-6-yl)ethyl)benzamide] | 500 to 2000 | < 200 |
| CCC(NC(=O)c1ccc(Cl)cc1)[C@H]1[C@@H]2C[C@@H](n3cc4ccc(F)cc4n3)C[C@@H]21 (stereo partly drawn) [Compound 163, 4-chloro-N-(1-((1R,3s,5S,6r)-3-(6-fluoro-2H-indazol-2-yl)bicyclo[3.1.0]hexan-6-yl)propyl)benzamide] | < 500 | < 200 |
